Experimental data taken from patent US10562891B2, “Quinazolinones as PARP14 inhibitors” (Ribon Therapeutics Inc., priority 2017, dated 2020).

Molecular target: catalytic domain of human PARP14 (Homo sapiens (Human), UniProt Q460N5)
Test: Enzymatic assay for inhibition of PARP14 (DELFIA, auto-modification with biotin-NAD)
Format: biochemical
Conditions: auto-modification of PARP14 by biotin-NAD, 50 nM PARP14, 3 μM biotin-NAD
Procedure, shortened: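 DELFIA auto-modification read-out: europium-streptavidin bound to biotin-NAD incorporated onto nickel-captured His-TEV PARP14 catalytic domain. Compound preincubated 30 min, then 50 nM enzyme with 3 μM biotin-NAD reacted 3 h, all at 25 °C, pH 8, then NAD quench. Percent inhibition normalized to rucaparib/DMSO wells, fitted (4- or 3-parameter) for IC50.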

catalytic domain of human PARP14, sequence (Q460N5 1611-1801): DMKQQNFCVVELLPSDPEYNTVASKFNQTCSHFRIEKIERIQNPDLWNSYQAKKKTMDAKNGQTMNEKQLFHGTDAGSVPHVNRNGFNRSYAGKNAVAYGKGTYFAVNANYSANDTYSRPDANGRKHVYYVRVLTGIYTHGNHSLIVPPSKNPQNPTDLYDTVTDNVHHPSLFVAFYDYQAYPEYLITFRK

Row | Structure (SMILES) | IC50 [µM]
1 | O=c1[nH]c(CSC2CCOCC2)nc2cc(OCC3CC3(F)F)cc(F)c12 (stereo not shown) [Example 315, 7-((2,2-Difluorocyclopropyl)methoxy)-5-fluoro-2-(((tetrahydro-2H-pyran-4-yl)thio)methyl)quinazolin-4(3H)-one] | < 1
2 | O=c1[nH]c(CS[C@H]2CC[C@H](O)CC2)nc2cc(OCC3CCCOC3)cc(F)c12 (stereo partly drawn) [Example 318, 5-Fluoro-2-(((trans-4-hydroxycyclohexyl)thio)methyl)-7-((tetrahydro-2H-pyran-3-yl)methoxy)quinazolin-4(3H)-one] | < 1
3 | O=c1[nH]c(CSC2CCOCC2)nc2cc(OC[C@H]3CCCO3)cc(F)c12 [Example 321a, (R)-5-Fluoro-2-(((tetrahydro-2H-pyran-4-yl)thio)methyl)-7-((tetrahydrofuran-2-yl)methoxy)quinazolin-4(3H)-one] | < 1
4 | O=c1[nH]c(CSC2CCOCC2)nc2cc(OC[C@@H]3CCCO3)cc(F)c12 [Example 321b, (S)-5-Fluoro-2-(((tetrahydro-2H-pyran-4-yl)thio)methyl)-7-((tetrahydrofuran-2-yl)methoxy)quinazolin-4(3H)-one] | < 1
5 | O=c1[nH]c(CSC2CCOCC2)nc2cc(NCC3CCOC3)c(F)c(F)c12 (stereo not shown) [Example 322, 5,6-Difluoro-2-(((tetrahydro-2H-pyran-4-yl)thio)methyl)-7-(((tetrahydrofuran-3-yl)methyl)amino)quinazolin-4(3H)-one] | < 1
6 | O=c1[nH]c(CSC2CCOCC2)nc2cc(NC[C@@H]3CCOC3)c(F)c(F)c12 [Example 323a, (S)-5,6-Difluoro-2-(((tetrahydro-2H-pyran-4-yl)thio)methyl)-7-(((tetrahydrofuran-3-yl)methyl)amino)quinazolin-4(3H)-one] | < 1
7 | O=c1[nH]c(CSC2CCOCC2)nc2cc(NC[C@H]3CCOC3)c(F)c(F)c12 [Example 323b, (R)-5,6-Difluoro-2-(((tetrahydro-2H-pyran-4-yl)thio)methyl)-7-(((tetrahydrofuran-3-yl)methyl)amino)quinazolin-4(3H)-one] | < 1
8 | CN1CC[C@@H](COc2cc(F)c3c(=O)[nH]c(CSC4CCOCC4)nc3c2)[C@H](F)C1 [Example 327a, 5-Fluoro-7-(((3S,4S)-3-fluoro-1-methylpiperidin-4-yl)methoxy)-2-(((tetrahydro-2H-pyran-4-yl)thio)methyl)quinazolin-4(3H)-one] | < 1
9 | CC(=O)N[C@H]1CC[C@@H](SCc2nc3cc(OCC4CC4)cc(F)c3c(=O)[nH]2)CC1 [Example 329, N-((cis)-4-(((7-(Cyclopropylmethoxy)-5-fluoro-4-oxo-3,4-dihydroquinazolin-2-yl)methyl)thio)cyclohexyl)acetamide] | < 1
10 | CN1CC[C@@H](COc2cc(F)c3c(=O)[nH]c(CS[C@H]4CC[C@H](O)CC4)nc3c2)[C@H](F)C1 [Example 335a, 5-fluoro-7-(((3S,4S)-3-fluoro-1-methylpiperidin-4-yl)methoxy)-2-((((trans)-4-hydroxycyclohexyl)thio)methyl)quinazolin-4(3H)-one] | < 1
11 | O=c1[nH]c(CSC2CCOCC2)nc2cc(NCC3CCOCC3)c(F)c(F)c12 [Example 338] | < 1
12 | O=c1[nH]c(CS[C@H]2CC[C@H](O)CC2)nc2cc(OCC3CCOCC3)cc(F)c12 [Example 342] | < 1
13 | CC(=O)N1CC[C@@H](Nc2cc3nc(CS[C@H]4CC[C@H](O)CC4)[nH]c(=O)c3c(F)c2F)C1 [Example 349] | < 1
14 | O=c1[nH]c(CS[C@H]2CC[C@H](O)CC2)nc2cc(NC3CCN(CCC(F)(F)F)CC3)c(F)c(F)c12 [Example 354] | < 1
15 | CO[C@H]1CC[C@H](SCc2nc3cc(OCC4CCOCC4)cc(F)c3c(=O)[nH]2)CC1 [Example 356] | < 1
16 | CC1(SCc2nc3cc(OCC4CCOCC4)cc(F)c3c(=O)[nH]2)CCOCC1 [Example 358] | < 1
17 | N#C[C@H]1CC[C@H](Nc2cc3nc(CSC4CCOCC4)[nH]c(=O)c3c(F)c2F)CC1 [Example 360] | < 1
18 | CO[C@H]1C[C@H](Nc2cc3nc(CSC4CCOCC4)[nH]c(=O)c3c(F)c2F)C1 [Example 362] | < 1
19 | Cc1cc(OCC2CCOCC2)cc2nc(CSC3CCOCC3)[nH]c(=O)c12 [Example 364] | < 1
20 | O=c1[nH]c(CS[C@H]2CC[C@@H](O)CC2)nc2cc(OCC3CCOCC3)cc(F)c12 [Example 365] | < 1

Other lines, results leading:

Row | IC50 [µM] | Structure (SMILES)
21 | < 1 | O=c1[nH]c(CSC2CCS(=O)(=O)CC2)nc2cc(NC3CCCC3)c(F)c(F)c12 [Example 316, 7-(Cyclopentylamino)-2-(((1,1-dioxidotetrahydro-2H-thiopyran-4-yl)thio)methyl)-5,6-difluoroquinazolin-4(3H)-one]
22 | < 1 | O=c1[nH]c(CSC2CCOCC2)nc2cc(OCC3CC(F)(F)C3)cc(F)c12 [Example 317, 7-((3,3-Difluorocyclobutyl)methoxy)-5-fluoro-2-(((tetrahydro-2H-pyran-4-yl)thio)methyl)quinazolin-4(3H)-one]
23 | < 1 | O=c1[nH]c(CSC2CCOCC2)nc2cc(OCC3CCCOC3)cc(F)c12 (stereo not shown) [Example 319, 5-Fluoro-7-((tetrahydro-2H-pyran-3-yl)methoxy)-2-(((tetrahydro-2H-pyran-4-yl)thio)methyl)quinazolin-4(3H)-one]
24 | < 1 | O=c1[nH]c(CSC2CCOCC2)nc2cc(OCC3CCCO3)cc(F)c12 (stereo not shown) [Example 320, 5-Fluoro-2-(((tetrahydro-2H-pyran-4-yl)thio)methyl)-7-((tetrahydrofuran-2-yl)methoxy)quinazolin-4(3H)-one]
25 | < 1 | O=c1[nH]c(CS[C@H]2CC[C@H](O)CC2)nc2cc(OCC3CCOC3)cc(F)c12 (stereo partly drawn) [Example 324, 5-Fluoro-2-((((trans)-4-hydroxycyclohexyl)thio)methyl)-7-((tetrahydrofuran-3-yl)methoxy)quinazolin-4(3H)-one]
26 | < 1 | O=c1[nH]c(CS[C@H]2CC[C@H](O)CC2)nc2cc(OC[C@@H]3CCOC3)cc(F)c12 [Example 325a, 5-Fluoro-2-((((trans)-4-hydroxycyclohexyl)thio)methyl)-7-(((R)-tetrahydrofuran-3-yl)methoxy)quinazolin-4(3H)-one]
27 | < 1 | O=c1[nH]c(CS[C@H]2CC[C@H](O)CC2)nc2cc(OC[C@H]3CCOC3)cc(F)c12 [Example 325b, 5-Fluoro-2-((((trans)-4-hydroxycyclohexyl)thio)methyl)-7-(((S)-tetrahydrofuran-3-yl)methoxy)quinazolin-4(3H)-one]
28 | < 1 | CO[C@H]1C[C@@H](Nc2cc3nc(CSC4CCOCC4)[nH]c(=O)c3c(F)c2F)C1 [Example 328, 5,6-Difluoro-7-(((cis)-3-methoxycyclobutyl)amino)-2-(((tetrahydro-2H-pyran-4-yl)thio)methyl)quinazolin-4(3H)-one]
29 | < 1 | CC(=O)N[C@H]1CC[C@H](SCc2nc3cc(OCC4CC4)cc(F)c3c(=O)[nH]2)CC1 [Example 330, N-((trans)-4-(((7-(Cyclopropylmethoxy)-5-fluoro-4-oxo-3,4-dihydroquinazolin-2-yl)methyl)thio)cyclohexyl)acetamide]
30 | < 1 | CCO[C@H]1C[C@@H](Nc2cc3nc(CSC4CCOCC4)[nH]c(=O)c3c(F)c2F)C1 [Example 331, 7-(((cis)-3-Ethoxycyclobutyl)amino)-5,6-difluoro-2-(((tetrahydro-2H-pyran-4-yl)thio)methyl)quinazolin-4(3H)-one]
31 | < 1 | C[C@]1(O)CC[C@H](SCc2nc3cc(OCC4CCOCC4)cc(F)c3c(=O)[nH]2)CC1 [Example 332, 5-Fluoro-2-((((cis)-4-hydroxy-4-methylcyclohexyl)thio)methyl)-7-((tetrahydro-2H-pyran-4-yl)methoxy)quinazolin-4(3H)-one]
32 | 1 to 10 | NC[C@]1(F)CC[C@@H](SCc2nc3cc(OCC4CCC4)cc(F)c3c(=O)[nH]2)CC1 [Example 336]
33 | < 1 | O=c1[nH]c(CSC2CCOCC2)nc2cc(NCC3CC3)c(F)c(F)c12 [Example 337]
34 | < 1 | O=c1[nH]c(CSC2CCS(=O)(=O)CC2)nc2cc(NCC3CCC3)c(F)c(F)c12 [Example 339]
35 | < 1 | O=c1[nH]c(CSC2CCOCC2)nc2cc(OCC3COC3)cc(F)c12 [Example 343]
36 | < 1 | O=c1[nH]c(CSC2CCOCC2)nc2cc(OCC3COCCO3)cc(F)c12 (stereo not shown) [Example 344]
37 | < 1 | O=c1[nH]c(CSC2CCOCC2)nc2cc(NC3CCCCC3(F)F)cc(F)c12 (stereo not shown) [Example 345]
38 | < 1 | CN1CCN([C@H]2CC[C@H](Nc3cc4nc(CSC5CCOCC5)[nH]c(=O)c4c(F)c3F)CC2)CC1 [Example 346]
39 | < 1 | CN1CCN([C@H]2CC[C@@H](Nc3cc4nc(CSC5CCOCC5)[nH]c(=O)c4c(F)c3F)CC2)CC1 [Example 347]
40 | < 1 | O=c1[nH]c(CSC2CCOCC2)nc2cc(N[C@@H]3CCCOC3)c(F)c(F)c12 [Example 348]
41 | < 1 | O=c1[nH]c(CS[C@H]2CC[C@H](O)CC2)nc2cc(NC3CCCC3(F)F)cc(F)c12 (stereo partly shown) [Example 350]
42 | < 1 | O=c1[nH]c(CSC2CCOCC2)nc2cc(OCC3CCS(=O)(=O)CC3)cc(F)c12 [Example 351]
43 | < 1 | O=c1[nH]c(CSC2CCOCC2)nc2cc(OCC3CCOCC3)cc(Cl)c12 [Example 353]
44 | < 1 | CC1(C)CC(COc2cc(F)c3c(=O)[nH]c(CS[C@H]4CC[C@H](O)CC4)nc3c2)CO1 (stereo partly shown) [Example 355]
45 | < 1 | CO[C@H]1CC[C@@H](SCc2nc3cc(OCC4CCOCC4)cc(F)c3c(=O)[nH]2)CC1 [Example 357]
46 | < 1 | N#C[C@H]1CC[C@@H](Nc2cc3nc(CSC4CCOCC4)[nH]c(=O)c3c(F)c2F)CC1 [Example 361]
47 | < 1 | CO[C@H]1C[C@@H](Nc2cc3nc(CS[C@H]4CC[C@H](O)CC4)[nH]c(=O)c3c(F)c2F)C1 [Example 363]
48 | < 1 | O=c1[nH]c(CSC2CCC(F)(F)CC2)nc2cc(OCC3CCOCC3)cc(F)c12 [Example 366]
49 | < 1 | CC(=O)N1CCC(COc2cc(F)c3c(=O)[nH]c(CSC4CCOCC4)nc3c2)C1 (stereo not shown) [Example 367]
